# Test results taken from PMC8942544, “Design and synthesis of benzodiazepines as brain penetrating PARP-1 inhibitors” (Journal of Enzyme Inhibition and Medicinal Chemistry, 2022).
# Molecular target: T1, PARP-1 (Homo sapiens, UniProt P09874)
# T1 construct: purchased BPS Bioscience 80580
# Assay: PARP-1 enzyme inhibition assay (BPS Bioscience PARP Colorimetric Assay Kit)
# Assay type: biochemical
# Conditions: compound concentration 50 nM; three independent tests
# Protocol: All target compounds were evaluated for PARP-1 enzyme inhibition activity at the concentration of 50 nM determined by previous pre-experiments.
# The ability of the compounds to inhibit PARP-1 enzyme activity was assessed using BPS Bioscience's PARP Colorimetric Assay Kit (BPS Bioscience, Catalog # 80580). PARP-1 is known to catalyse the NAD-dependent addition of poly(ADP-ribose) to histones. The PARP-1 assay kit comes in a convenient 96-well format, with purified PARP-1 enzyme, histone mixture, activated DNA, and PARP-1 assay buffer. The key to the PARP-1 Colorimetric Activity Assay is the biotinylated substrate. With this kit, only three simple steps are required for PARP-1 reactions. First, histone proteins are coated on a 96-well plate. Next, the PARP-1 biotinylated substrate is incubated with an assay buffer that contains the PARP-1 enzyme. Finally, the plate is treated with streptavidin-HRP followed by the addition of the colorimetric HRP substrate to produce colour that can then be measured using a UV/Vis spectrophotometer microplate reader. IC50 values were calculated using GraphPad Prism5 software.
# T1 sequence (P09874 whole entry): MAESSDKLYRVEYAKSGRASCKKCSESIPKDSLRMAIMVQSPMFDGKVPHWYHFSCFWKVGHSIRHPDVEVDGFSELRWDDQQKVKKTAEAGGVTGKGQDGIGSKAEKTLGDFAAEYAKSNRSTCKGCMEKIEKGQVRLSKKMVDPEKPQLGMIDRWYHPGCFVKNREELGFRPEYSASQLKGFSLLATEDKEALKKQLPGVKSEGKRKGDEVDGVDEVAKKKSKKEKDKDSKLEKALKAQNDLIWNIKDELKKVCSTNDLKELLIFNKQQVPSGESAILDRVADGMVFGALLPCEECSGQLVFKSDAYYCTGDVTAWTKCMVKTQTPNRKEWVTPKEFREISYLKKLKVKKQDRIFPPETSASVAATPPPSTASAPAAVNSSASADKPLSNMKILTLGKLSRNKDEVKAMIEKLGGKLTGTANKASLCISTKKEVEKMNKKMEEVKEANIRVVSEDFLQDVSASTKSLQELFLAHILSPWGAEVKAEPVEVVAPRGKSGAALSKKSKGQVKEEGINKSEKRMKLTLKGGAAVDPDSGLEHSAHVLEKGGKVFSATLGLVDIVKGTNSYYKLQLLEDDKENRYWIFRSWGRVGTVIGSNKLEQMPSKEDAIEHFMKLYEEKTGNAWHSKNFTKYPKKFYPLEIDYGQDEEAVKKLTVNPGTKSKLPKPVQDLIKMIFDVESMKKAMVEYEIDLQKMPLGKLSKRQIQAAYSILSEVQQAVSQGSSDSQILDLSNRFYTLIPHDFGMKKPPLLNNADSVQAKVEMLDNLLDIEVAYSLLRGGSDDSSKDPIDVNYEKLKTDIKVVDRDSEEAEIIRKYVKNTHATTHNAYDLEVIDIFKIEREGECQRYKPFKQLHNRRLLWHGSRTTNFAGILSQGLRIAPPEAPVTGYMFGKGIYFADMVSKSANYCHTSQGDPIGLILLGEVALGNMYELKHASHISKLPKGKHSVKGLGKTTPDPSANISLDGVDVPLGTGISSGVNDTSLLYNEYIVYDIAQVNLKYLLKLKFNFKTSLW
row,inhibition at 0.05 µM,SMILES
1,33 ± 3%,"O=C1NCC(c2ccc(F)cc2)Nc2ccccc21 (centres unmarked) [Compound H22, 2-(4-Fluorophenyl)-1,2,3,4-tetrahydro-5H-benzo[e][1,4]diazepin-5-one]"
2,39.8 ± 4.2%,"CC1NC(=O)c2ccccc2N=C1c1ccc(Br)cc1 (centres unmarked) [Compound H30, 2-(4-Bromophenyl)-3-methyl-3,4-dihydro-5H-benzo[e][1,4]diazepin-5-one]"
3,14.9 ± 8.2%,"O=C1NCC(c2ccc(-c3ccc4[nH]c5ccccc5c4c3)cc2)=Nc2ccccc21 [Compound H46, 2-(4-(9H-carbazol-3-yl)phenyl)-3,4-dihydro-5H-benzo[e][1,4]diazepin-5-one]"
4,3.6 ± 2.5%,O=C1CCNc2ccccc2N1 [Compound H3]
5,22.1 ± 3.2%,"CN1CC(c2ccc(Br)cc2)N(C)c2ccccc2C1=O (centres unmarked) [Compound H29, 2-(4-Bromophenyl)-1,4-dimethyl-1,2,3,4-tetrahydro-5H-benzo[e][1,4]diazepin-5-one]"
6,24 ± 5.7%,"CN1CC(c2ccc(Br)cc2)Nc2ccccc2C1=O (centres unmarked) [Compound H28, 2-(4-Bromophenyl)-4-methyl-1,2,3,4-tetrahydro-5H-benzo[e][1,4]diazepin-5-one]"
7,34.6 ± 6.8%,"CC(=O)N1CCN(c2ccc(C3CNC(=O)c4ccccc4N3)cc2)CC1 (centres unmarked) [Compound H54, 2-(4-(4-Acetylpiperazin-1-yl)phenyl)-1,2,3,4-tetrahydro-5H-benzo[e][1,4]diazepin-5-one]"
8,33 ± 2.4%,"O=C1NCC(c2ccc(Cl)cc2)=Nc2ccccc21 [Compound H10, 2-(4-Chlorophenyl)-3,4-dihydro-5H-benzo[e][1,4]diazepin-5-one]"
9,43.2 ± 2.5%,"O=C1NCC(c2ccc(Br)cc2)Nc2ccccc21 (centres unmarked) [Compound H27, 2-(4-Bromophenyl)-1,2,3,4-tetrahydro-5H-benzo[e][1,4]diazepin-5-one]"
10,34.4 ± 3.6%,"O=C1NCC(c2ccc(Cl)c(Cl)c2)=Nc2ccccc21 [Compound H17, 2-(3,4-Dichlorophenyl)-3,4-dihydro-5H-benzo[e][1,4]diazepin-5-one]"
11,36.1 ± 3.6%,"O=C1NCC(c2ccc(F)cc2F)=Nc2ccccc21 [Compound H14, 2-(2,4-Difluorophenyl)-3,4-dihydro-5H-benzo[e][1,4]diazepin-5-one]"
12,45.1 ± 5.2%,"O=C1NCC(c2ccc(-c3ccc(C(F)(F)F)cc3)cc2)=Nc2ccccc21 [Compound H44, 2-(4′-(Trifluoromethyl)-[1,1′-biphenyl]-4-yl)-3,4-dihydro-5H-benzo[e][1,4]diazepin-5-one]"
13,29.9 ± 3.4%,"CC(C)N1CCN(c2ccc(C3CNC(=O)c4ccccc4N3)cc2)CC1 (centres unmarked) [Compound H53, 2-(4-(4-Isopropylpiperazin-1-yl)phenyl)-1,2,3,4-tetrahydro-5H-benzo[e][1,4]diazepin-5-one]"
14,39.2 ± 4.5%,"O=C1NCC(c2cc(F)cc(F)c2)Nc2ccccc21 (centres unmarked) [Compound H25, 2-(3,5-Difluorophenyl)-1,2,3,4-tetrahydro-5H-benzo[e][1,4]diazepin-5-one]"
15,15.7 ± 4.1%,"N#Cc1ccc(C2=Nc3ccccc3C(=O)NC2)cc1 [Compound H12, 4-(5-Oxo-4,5-dihydro-3H-benzo[e][1,4]diazepin-2-yl)benzonitrile]"
16,31.9 ± 1.2%,"COc1ccc(C2=Nc3ccccc3C(=O)NC2)cc1 [Compound H6, 2-(4-Methoxyphenyl)-3,4-dihydro-5H-benzo[e][1,4]diazepin-5-one]"
17,35.4 ± 2.4%,"COc1ncc(-c2ccc(C3=Nc4ccccc4C(=O)NC3)cc2)cc1N [Compound H40, 2-(4-(5-Amino-6-methoxypyridin-3-yl)phenyl)-3,4-dihydro-5H-benzo[e][1,4]diazepin-5-one]"
18,36.6 ± 3%,"O=C1NCC(c2cccc(F)c2)=Nc2ccccc21 [Compound H9, 2-(3-Fluorophenyl)-3,4-dihydro-5H-benzo[e][1,4]diazepin-5-one]"

row,inhibition at 0.05 µM,SMILES
1,41.4 ± 3.5%,"O=C1NCC(c2ccc(-c3cccc(C(F)(F)F)c3)cc2)=Nc2ccccc21 [Compound H43, 2-(3′-(Trifluoromethyl)-[1,1′-biphenyl]-4-yl)-3,4-dihydro-5H-benzo[e][1,4]diazepin-5-one]"
2,32.1 ± 3.6%,"O=C1NCC(c2ccc(F)cc2)=Nc2ccccc21 [Compound H8, 2-(4-Fluorophenyl)-3,4-dihydro-5H-benzo[e][1,4]diazepin-5-one]"
3,32.1 ± 1.6%,"O=C1NCC(c2cccc(F)c2)Nc2ccccc21 (centres unmarked) [Compound H23, 2-(3-Fluorophenyl)-1,2,3,4-tetrahydro-5H-benzo[e][1,4]diazepin-5-one]"
4,28.7 ± 2.6%,"O=C1NCC(c2cccc(Cl)c2)=Nc2ccccc21 [Compound H11, 2-(3-Chlorophenyl)-3,4-dihydro-5H-benzo[e][1,4]diazepin-5-one]"
5,28.3 ± 8.8%,"COc1cccc(-c2ccc(C3=Nc4ccccc4C(=O)NC3)cc2)c1 [Compound H41, 2-(3′-Methoxy-[1,1′-biphenyl]-4-yl)-3,4-dihydro-5H-benzo[e][1,4]diazepin-5-one]"
6,34.7 ± 2.9%,"COc1cccc(C2=Nc3ccccc3C(=O)NC2)c1 [Compound H7, 2-(3-Methoxyphenyl)-3,4-dihydro-5H-benzo[e][1,4]diazepin-5-one]"
7,48.6 ± 1.2%,"O=C1NCC(c2ccc(-c3cn[nH]c3)cc2)=Nc2ccccc21 [Compound H32, 2-(4-(1H-pyrazol-4-yl)phenyl)-3,4-dihydro-5H-benzo[e][1,4]diazepin-5-one]"
8,38.5 ± 4.5%,"COc1cccc(-c2ccc(C3CNC(=O)c4ccccc4N3)cc2)c1 (centres unmarked) [Compound H49, 2-(3′-Methoxy-[1,1′-biphenyl]-4-yl)-1,2,3,4-tetrahydro-5H-benzo[e][1,4]diazepin-5-one]"
9,5.2 ± 3.1%,O=C1NCCCc2ccccc21 [Compound H2]
10,37.4 ± 3.9%,"COc1ccc(C2CNC(=O)c3ccccc3N2)cc1OC (centres unmarked) [Compound H26, 2-(3,4-Dimethoxyphenyl)-1,2,3,4-tetrahydro-5H-benzo[e][1,4]diazepin-5-one]"
11,35.9 ± 2.2%,"O=C1NCC(c2ccc3ccccc3c2)=Nc2ccccc21 [Compound H18, 2-(Naphthalen-2-yl)-3,4-dihydro-5H-benzo[e][1,4]diazepin-5-one]"
12,33.9 ± 5.3%,"Nc1ncc(-c2ccc(C3=Nc4ccccc4C(=O)NC3)cc2)cn1 [Compound H39, 2-(4-(2-Aminopyrimidin-5-yl)phenyl)-3,4-dihydro-5H-benzo[e][1,4]diazepin-5-one]"
13,36.9 ± 1.4%,"O=C1NCC(c2cc(F)cc(F)c2)=Nc2ccccc21 [Compound H15, 2-(3,5-Difluorophenyl)-3,4-dihydro-5H-benzo[e][1,4]diazepin-5-one]"
14,46.5 ± 3.2%,"Cn1cc(-c2ccc(C3=Nc4ccccc4C(=O)NC3)cc2)cn1 [Compound H33, 2-(4-(1-Methyl-1H-pyrazol-4-yl)phenyl)-3,4-dihydro-5H-benzo[e][1,4]diazepin-5-one]"
15,27.9 ± 1.8%,"COc1ccc(C2CNC(=O)c3ccccc3N2)cc1 (centres unmarked) [Compound H20, 2-(4-Methoxyphenyl)-1,2,3,4-tetrahydro-5H-benzo[e][1,4]diazepin-5-one]"
16,37.9 ± 2.3%,"O=C1NCC(c2ccc(O)cc2)=Nc2ccccc21 [Compound H13, 2-(4-Hydroxyphenyl)-3,4-dihydro-5H-benzo[e][1,4]diazepin-5-one]"
17,27.3 ± 2.3%,"COc1cccc(C2CNC(=O)c3ccccc3N2)c1 (centres unmarked) [Compound H21, 2-(3-Methoxyphenyl)-1,2,3,4-tetrahydro-5H-benzo[e][1,4]diazepin-5-one]"
